Assay results from US20250154201A1, “PEPTIDE BINDING TO MESOTHELIN, AND USE THEREOF” (KYUNGPOOK NATIONAL UNIVERSITY INDUSTRY-ACADEMIC COOPERATION …, priority 2022, published 2025).
Converted amounts (≈) assume the structure as drawn. Positions of bridges follow the written chain, without caps; N, C: chain ends. Residues, ends and D or L forms follow the SMILES beside them. No end group written: not given here.

Experiments:
[1] = in vitro
Description: (§1) Pancreatic cancer cell line AsPC-1 cells (5×10^3 cells/well in 96-well plates) were cultured in 1% serum medium with various concentrations of MSLN-pep peptide that specifically binds to mesothelin, NSSSVDK control peptide (Ctrl-pep), R7-KLA peptide that induces apoptosis, Abraxane, gemcitabine, and PBS at 37° C. for 24 and 48 hours. Afterwards, CCK-8 Kit (Dojindo, Kumamoto, Japan) reagent was treated, and a reaction was carried out at 37° C. for 2 hours to evaluate cytotoxicity.
(§2) To determine whether there is cytotoxicity when MSLN-pep binds specifically to mesothelin, the peptide was treated to the pancreatic cancer cell line AsPC-1 at concentrations of 0, 25, 50, 100, and 200 μM, and cell viability was checked for 24 and 48hours.

[2] = system: pancreatic cancer cell line AsPC-1; assay: in vitro
Description: as §1, §2

[3] = system: PANC-1 and AsPC-1 cell lines; assay: analysis of invasion (Matrigel-coated 24-transwell); assay type: cell-based, human; details: 200 μM + 10% FBS; 24 hours
Description: PANC-1 and AsPC-1 cell lines were cultured using DMEM and RPMI-1640 media with 10% FBS added in 100 mm dish each at a concentration of 2×10^6 cells per well. After 24 hours, all media in 100 mm dishes were removed and replaced with DMEM and RPMI-1640 media without addition of 10% FBS to inhibit migratability of cell lines so as to be in a starvation state. After 24 hours, 300 μg/mL of Matrigel was coated on the upper chamber of 24-Transwell. Afterwards, PANC-1 and AsPC-1 cell lines were cultured in the upper chamber at a concentration of 2×10^4 cells in a 100 mm dish, 10% FBS was added to the lower chamber for the experimental group, and 0% FBS was added to the lower chamber for the control group to identify migratability. 3% ACN, 200 μM control peptide (Ctrl-pep), MSLN-pep 25. For 50, 100, and 200 μM groups, each cell line was cultured together in the upper chamber of the 24-Transwell, and 10% FBS was treated in the lower chamber. Each group was cultured at 37° C. for 24 hours, and then the cells were photographed (original magnification, ×100) for each concentration of peptides. Cells were stained with crystal violet (0.1%), and Image J, a computer program, was used for quantitative evaluation.
(§3) After pancreatic cancer cell lines PANC-1 and AsPC-1 were cultured in 24-transwells, all cells were starved for 24 hours to inhibit cell growth, and then treatment was performed in divided groups of 10% FBS, 0% FBS, 3% ACN+10% FBS, 200 μM NSSSVDK+10% FBS, 25 μM MSLN-pep+10% FBS, 50 μM MSLN-pep+10% FBS, 100 μM MSLN-pep+10% FBS, and 200 μM MSLN-pep+10% FBS.

[4] = system: PANC-1 and AsPC-1 cell lines; assay: analysis of migration (24-transwell); assay type: cell-based, human; details: 200 μM + 10% FBS; 24 hours
Description: PANC-1 and AsPC-1 cell lines were cultured using DMEM and RPMI-1640 media with 10% FBS added respectively in the upper chamber of 24-transwell at a concentration of 2×10^4 cells per well. After 24 hours, all the media in the upper chamber of 24-transwells were removed and replaced with DMEM and RPMI-1640 media without addition of 10% FBS to inhibit migratability of cell lines, so as to be in a starvation state. After 24 hours, the experimental group was added with 10% FBS in the lower chamber, and the control was added with 0% FBS in the lower chamber to observe migratability. 3% ACN, 200 μM control peptide (Ctrl-pep), MSLN-pep 25. For 50, 100, and 200 μM groups, the media in the upper chamber of 24-Transwell were removed, each drug was treated by concentration, and 10% FBS was treated in the lower chamber. Each group was cultured at 37° C. for 24 hours, and then the cells were photographed (original magnification, ×100) by concentration of each peptide. Cells were stained with crystal violet (0.1%), and the ImageJ, a computer program, was used for quantitative evaluation.
as §3

[5] = molecular target: mesothelin (Homo sapiens, UniProt Q13421); assay: immunofluorescence binding to HEK-293T cells transiently transfected with mesothelin-GFP plasmid; assay type: cell-based; set-up: GFP; host or cells: HEK293T; details: 10 μM and 25 μM MSLN-pep, 25 μM Ctrl-pep; transfected and untransfected HEK-293T
Description: HEK293T cells were transiently transfected using Lipofectamine 3000 (Invitrogen) in 6-well plates according to the manufacturer's protocol. Prior to transfection, 2×10^5 cells were cultured in 6-well plates for 24 hours. To transfect one well, 7.5 μl of Lipofectamine 3000 reagent was diluted in 250 μl of Opti-MEM (Invitrogen) reagent, followed by a reaction at room temperature for 5 minutes. 5 μg of mesothelin-expressing plasmid pCMV6-AC-GFP vector DNA was diluted in 250 μl of Opti-MEM (Invitrogen) reagent, followed by a reaction at room temperature for 5 minutes. The mixture of two solutions were then mixed and reacted at room temperature for 10 minutes (a total of 500 μl per well). The old medium of the cells was immediately removed, and a 500 μl of DNA-transfection reagent-mixture was added to the cells before transfer to the incubator. After 24 hours of culture, the medium was again replaced with a pre-warmed growth medium containing serum. Culture was performed for 48 hours, and the newly inserted protein was expressed in the cells.
Taken together, it was found via immunofluorescence analysis that MSLN-pep specifically binds to mesothelin.

[6] = system: AsPC-1 tumor; assay: tumor homing of peptides in mice; assay type: in vivo, nude mice; details: TAMRA-labeled, intravenous, 6 hours circulation; liver, lungs, kidneys
Description: Pancreatic cancer cell line AsPC-1 cells (1×10^7 cells) were implanted under the skin of nude mice, left until the tumor size reaches about 100 mm^3, and then intravenously injected with 100 μl of 1 mM peptides labeled with a TAMRA fluorescence reagent, followed by circulation for 6 hours. Tumors and organs (liver, lung, and kidney) were separated and treated with paraformaldehyde for fixation and preparation of cryosections. The prepared cryosections were observed under a fluorescence microscope.
Pancreatic cancer cell line AsPC-1 cells (1×10^7 cells) were implanted under
the skin of nude mice, left until the tumor size reached about 100 mm^3, and then intravenously injected with MSLN-pep labeled with the TAMRA fluorescence reagent and control peptide (Ctrl-pep), followed by circulation for 6 hours. The tumor and control organs were separated, and cryosections were prepared, followed by observation under a fluorescence microscope.

[7] = system: pancreatic cancer cell lines PANC-1 and AsPC-1; assay: internalization of FITC-labeled peptides (confocal microscopy); assay type: cell-based, human; details: 25 μM and 50 μM MSLN-pep, 50 uM NSSSVDK; 1 and 2 hours
Description: To observe the intracellular distribution of the internalized FITC-labeled peptide MSLN-pep, pancreatic cancer cell lines AsPC-1 and PANC-1 cells (2.5×10^5 cell counts) were dispensed on a 4-well chamber slide. After complete adhesion, the cell culture medium was replaced with a fresh medium containing FITC-labeled peptides (25 μM, 50 μM), […], and the cells were washed with PBS 3 times for 3˜5 minutes, followed by fixation (4% paraformaldehyde; PFA) for 5 minutes. Thereafter, washing with PBS was performed. After staining the nucleus with DAPI and mounting on a glass slide with a fading reagent, internalization of FITC-labeled MSLN-pep was observed under confocal microscopy.

[8] = molecular target: T1, human mesothelin (endogenous, on pancreatic cancer cell lines AsPC-1, PANC-1, BxPC-3, MiaPaCa-2) (human, UniProt Q13421 296-598); assay: cell-based or functional assay
[9] = molecular target: T1, human mesothelin (endogenous, on …); assay: confocal microscopy on PANC-1 and AsPC-1 cells, 1 and 2 hours

T1 sequence (Q13421 other isoform, or with tags, fused parts or gaps limits assumed): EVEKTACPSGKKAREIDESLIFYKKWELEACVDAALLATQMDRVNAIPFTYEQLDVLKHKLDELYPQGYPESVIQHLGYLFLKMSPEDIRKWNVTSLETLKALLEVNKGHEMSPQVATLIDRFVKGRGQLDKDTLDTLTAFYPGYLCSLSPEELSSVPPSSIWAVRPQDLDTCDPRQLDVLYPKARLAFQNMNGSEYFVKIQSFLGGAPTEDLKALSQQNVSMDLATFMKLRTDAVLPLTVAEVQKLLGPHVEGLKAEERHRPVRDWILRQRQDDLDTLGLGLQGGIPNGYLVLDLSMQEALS
Sequence of mesothelin (Q13421 with tags, fused parts or gaps): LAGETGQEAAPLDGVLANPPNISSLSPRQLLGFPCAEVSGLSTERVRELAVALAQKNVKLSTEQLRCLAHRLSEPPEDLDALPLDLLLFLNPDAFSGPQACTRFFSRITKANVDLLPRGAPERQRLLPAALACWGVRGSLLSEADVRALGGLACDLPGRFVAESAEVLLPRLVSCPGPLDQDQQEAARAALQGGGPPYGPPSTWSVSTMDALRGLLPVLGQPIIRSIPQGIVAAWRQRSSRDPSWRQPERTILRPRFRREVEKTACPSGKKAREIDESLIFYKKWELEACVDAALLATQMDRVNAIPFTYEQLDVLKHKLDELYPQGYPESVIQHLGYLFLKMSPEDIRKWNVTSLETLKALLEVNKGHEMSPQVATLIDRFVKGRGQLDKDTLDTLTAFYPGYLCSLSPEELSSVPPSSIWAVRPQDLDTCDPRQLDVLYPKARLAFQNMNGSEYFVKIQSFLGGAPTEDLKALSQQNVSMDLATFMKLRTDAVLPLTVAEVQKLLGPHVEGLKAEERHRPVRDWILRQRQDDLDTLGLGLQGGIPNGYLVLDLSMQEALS

## CC[C@H](C)[C@@H]1NC(=O)[C@H]([C@@H](C)O)NC(=O)[C@@H](N)CSSC[C@@H](C(=O)N[C@@H](CCCCN)C(=O)N[C@@H](CC(C)C)C(=O)N[C@@H](C)C(=O)N[C@@H](CCCCN)C(=O)N[C@@H](CC(C)C)C(=O)N[C@@H](C)C(=O)N[C@@H](CCCCN)C(=O)N[C@@H](CCCCN)C(=O)N[C@@H](CC(C)C)C(=O)N[C@@H](C)C(=O)N[C@@H](CCCCN)C(=O)N[C@@H](CC(C)C)C(=O)N[C@@H](C)C(=O)N[C@@H](CCCCN)C(=O)O)NC(=O)[C@H]([C@@H](C)O)NC(=O)[C@H](CC(C)C)NC(=O)[C@H](CO)NC(=O)[C@H](Cc2c[nH]c3ccccc23)NC(=O)[C@H](CC(C)C)NC1=O [MSLN-pep-KLA] (H-CTILWSLTCKLAKLAKKLAKLAK-OH; disulfide 1-9)
[1]
  IC50: 33 µM
[2]; 0, 6.25, 12.5, 25, 50, 100, and 200 uM, 24 hours
  cell viability, comparison between groups: second lowest

## Nc1ccn([C@@H]2O[C@H](CO)[C@@H](O)C2(F)F)c(=O)n1 [gemcitabine, reference compound]
[2]; Homo sapiens, ASPC1, 24 h, read-out: IC50 value (cytotoxicity)
  IC50: 3.3 mg/L (≈ 12.5 µM)
[2]; Homo sapiens, ASPC1, 24 h, read-out: cell viability
  viability at 10 µg/mL: ≤ 40%

## NSSSVDK [Ctrl-pep, reference compound]
[3]
  invasiveness compared to treatment of 10% FBS: no difference in the migratability and invasiveness
[4]
  migratability compared to treatment of 10% FBS: no difference in the migratability and invasiveness
[5]
  specific binding (immunofluorescence): did not have specific binding
[6]
  targeting to control organs (fluorescence microscopy of cryosections): barely observed
[7]
  binding and internalization into cells: did not bind to PANC-1 and AsPC-1

B1: MSLN-pep-KLA (fusion of CTILWSLTC and apoptotic peptide KLAKLAKKLAKLAK) (peptide)
peptide: CTILWSLTCKLAKLAKKLAKLAK
modifications: disulfide 1-9
[8]
  cell viability of AsPC-1 after 24 hours (CCK-8), IC50: 33 µM

B2: NSSSVDK control peptide (Ctrl-pep) (peptide)
peptide: NSSSVDK
notes: Control peptide
[9]
  binding result: no binding (tested: 50 µM)
